Biological target: P70S6K (T412E mutant) (Homo sapiens (Human), UniProt P23443, T412E)
Test: P70S6K enzyme assay
Assay type: biochemical
Settings: 3 nM P70S6K T412E mutant, 24 μM ATP, 1 μM FITC-AHA-AKRRRLSSLRA-OH substrate peptide, 90 min at 25° C.
Summary of the method: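 P70S6K T412E mutant (3 nM) with 24 μM ATP and 1 μM FITC-labelled S6-derived peptide in Hepes pH 7.5, MgCl2, DTT, Brij buffer; 90 min at 25° C, stopped with EDTA. Phosphorylated product and substrate peptides separated by microfluidic mobility shift; IC50 values derived.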

P70S6K (T412E mutant), sequence (P23443 whole entry T412E): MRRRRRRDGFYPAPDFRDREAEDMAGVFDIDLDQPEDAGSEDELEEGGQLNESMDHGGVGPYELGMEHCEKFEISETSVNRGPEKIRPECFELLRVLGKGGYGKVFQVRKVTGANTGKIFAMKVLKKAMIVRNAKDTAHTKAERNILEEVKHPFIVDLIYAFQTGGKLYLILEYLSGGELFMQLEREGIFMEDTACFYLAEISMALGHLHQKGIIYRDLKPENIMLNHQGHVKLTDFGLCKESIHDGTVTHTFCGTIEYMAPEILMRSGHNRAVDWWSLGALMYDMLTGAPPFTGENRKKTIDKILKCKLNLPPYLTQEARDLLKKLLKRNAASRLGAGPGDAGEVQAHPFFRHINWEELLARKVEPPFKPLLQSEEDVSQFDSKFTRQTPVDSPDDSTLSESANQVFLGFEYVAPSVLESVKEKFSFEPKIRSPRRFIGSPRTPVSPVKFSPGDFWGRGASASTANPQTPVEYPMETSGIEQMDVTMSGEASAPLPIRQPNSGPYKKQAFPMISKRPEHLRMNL

**Q.** With `NC[C@H](c1ccc(C(F)(F)F)cc1)C1CCN(c2ncnc(N)c2-c2ccc(F)cc2)CC1` [Example 53, 6-{4-[(S)-2-Amino-1-(4-trifluoromethyl-phenyl)-ethyl]-piperidin-1-yl}-5-(4-fluoro-phenyl)-pyrimidin-4-ylamine] as the compound, how does the IC50 read?
**A.** Its IC50 is 3.2 nM.

**Q.** For `N#Cc1c(N)ncnc1N1CCN(C(CN)c2ccc(C(F)(F)F)cc2)CC1` (centres unmarked) [Example 36, 4-Amino-6-{4-[2-amino-1-(4-trifluoromethyl-phenyl)-ethyl]-piperazin-1-yl}-pyrimidine-5-carbonitrile], which IC50 is on record?
**A.** Its IC50 is 14 nM.

**Q.** With `CC[C@H](NC(=O)C1(N)CCN(c2ncnc(N)c2Cl)CC1)c1ccc(Cl)cc1` [Example 215, 4-Amino-1-(6-amino-5-chloro-pyrimidin-4-yl)-piperidine-4-carboxylic acid [(S)-1-(4-chloro-phenyl)-propyl]-amide] as the compound, how does the IC50 read?
**A.** Its IC50 is 190 nM.

**Q.** For `Nc1ncnc(N2CCN(C(CN3CCC3)c3ccc(Cl)c(Cl)c3)CC2)c1-c1cn[nH]c1` (centres unmarked) [Example 131, 6-{4-[2-Azetidin-1-yl-1-(3,4-dichloro-phenyl)-ethyl]-piperazin-1-yl}-5-(1H-pyrazol-4-yl)-pyrimidin-4-ylamine], which IC50 is on record?
**A.** Its IC50 is 1500 nM.

**Q.** With `Nc1ncnc(N2CCC(N)(C(=O)N[C@H](c3ccc(Cl)cc3)C(F)(F)F)CC2)c1Cl` [Example 216, 4-Amino-1-(6-amino-5-chloro-pyrimidin-4-yl)-piperidine-4-carboxylic acid [(R)-1-(4-chloro-phenyl)-2,2,2-trifluoroethyl]-amide] as the compound, how does the IC50 read?
**A.** Its IC50 is 820 nM.

**Q.** For `NCC(c1ccc(C(F)(F)F)cc1)N1CCN(c2ncnc(N)c2C2=CCCCC2)CC1` (centres unmarked) [Example 24, 6-(4-(2-amino-1-(4-(trifluoromethyl)phenyl)ethyl)piperazin-1-yl)-5-(cyclohex-1-en-1-yl)pyrimidin-4-amine], which IC50 is on record?
**A.** The IC50 was 5.3 nM.

**Q.** `Nc1ncnc(N2CCN(C(CN3CCC3)c3ccc(Cl)c(C(F)(F)F)c3)CC2)c1-c1cn[nH]c1` (centres unmarked) [Example 132, 6-{4-[2-Azetidin-1-yl-1-(4-chloro-3-trifluoromethyl-phenyl)-ethyl]-piperazin-1-yl}-5-(1H-pyrazol-4-yl)-pyrimidin-4-ylamine] was tested. Which IC50 did it give?
**A.** The IC50 was 1400 nM.

**Q.** How did the IC50 turn out when `Nc1ncnc(N2CCN(C(CN3CCC3)c3cccc(F)c3F)CC2)c1-c1cn[nH]c1` (centres unmarked) [Example 124, 6-{4-[2-Azetidin-1-yl-1-(2,3-difluoro-phenyl)-ethyl]-piperazin-1-yl}-5-(1H-pyrazol-4-yl)-pyrimidin-4-ylamine] was run?
**A.** Its IC50 is 3400 nM.

**Q.** With `N#CC(c1cccnc1)N1CCN(c2ncnc(N)c2-c2ccc(F)cc2)CC1` (centres unmarked) [Example 190, {4-[6-Amino-5-(4-fluoro-phenyl)-pyrimidin-4-yl]-piperazin-1-yl}-pyridin-3-yl-acetonitrile] as the compound, how does the IC50 read?
**A.** The IC50 was 230 nM.

**Q.** Which IC50 does the source give for `C[C@H](NC(=O)C1(N)CCN(c2ncnc(N)c2Cl)CC1)c1ccc(Cl)cc1` [Example 222, 4-Amino-1-(6-amino-5-chloro-pyrimidin-4-yl)-piperidine-4-carboxylic acid [(S)-1-(4-chloro-phenyl)-ethyl]-amide] here?
**A.** The IC50 was 620 nM.

**Q.** How did the IC50 turn out when `COC[C@H](NC(=O)C1(N)CCN(c2ncnc(N)c2C(N)=O)CC1)c1ccc(Cl)cc1` [Example 246, 4-Amino-6-{4-amino-4-[(R)-1-(4-chloro-phenyl)-2-methoxy-ethylcarbamoyl]-piperidin-1-yl}-pyrimidine-5-carboxylic acid amide] was run?
**A.** Its IC50 is 5000 nM.

**Q.** `CCc1c(N)ncnc1N1CCN(C(CN)c2ccc(Cl)cc2)CC1` (centres unmarked) [Example 178, 6-{4-[2-Amino-1-(4-chloro-phenyl)-ethyl]-piperazin-1-yl}-5-ethyl-pyrimidin-4-ylamine] was tested. Which IC50 did it give?
**A.** Its IC50 is 69 nM.

**Q.** `Nc1ncnc(N2CCN(C(CN3CCCC3)c3cccc(C(F)(F)F)c3)CC2)c1Br` (centres unmarked) [Example 69, 5-Bromo-6{4-[1-(3-trifluoromethyl-phenyl)-2-pyrrolidin-1-yl-ethyl]-piperazin-1-yl}-pyrimidin-4-ylamine] was tested. Which IC50 did it give?
**A.** Its IC50 is over 1000 nM.

**Q.** How did the IC50 turn out when `NCC(c1ccc(C(F)(F)F)cc1)N1CCN(c2ncnc(N)c2Br)CC1` (centres unmarked) [Example 1, 6-{4-[2-Amino-1-(4-trifluoromethyl-phenyl)-ethyl]-piperazin-1-yl}-5-bromo-pyrimidin-4-ylamine] was run?
**A.** The IC50 was 5.8 nM.
